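These data come from cells grown in 96-well plates and exposed to compound for 48 hours at five concentrations. TGI marks complete inhibition of growth.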
Legend:
Assay in all cases: NCI anticancer screen, dose series, 48 h
TK-10 renal = tested on: TK-10 renal
HCT-116 colon = tested on: HCT-116 colon
HL-60(TB) leukemia = tested on: HL-60(TB) leukemia
SK-OV-3 ovarian = tested on: SK-OV-3 ovarian
KM12 colon = tested on: KM12 colon
SNB-75 CNS = tested on: SNB-75 CNS
U251 CNS = tested on: U251 CNS
UACC-257 melanoma = tested on: UACC-257 melanoma
A549 NSCLC = tested on: A549 NSCLC
CCRF-CEM leukemia = tested on: CCRF-CEM leukemia
SN12C renal = tested on: SN12C renal

SMILES	TGI (TK-10 renal) [µM]	TGI (HCT-116 colon) [µM]	TGI (HL-60(TB) leukemia) [µM]	TGI (SK-OV-3 ovarian) [µM]	TGI (KM12 colon) [µM]	TGI (SNB-75 CNS) [µM]	TGI (U251 CNS) [µM]	TGI (UACC-257 melanoma) [µM]	TGI (A549 NSCLC) [µM]	TGI (CCRF-CEM leukemia) [µM]	TGI (SN12C renal) [µM]
CC1Cn2c(nc3ccccc32)NC1=O (stereo not given)	> 100	> 100	> 100	> 100	> 100	> 100	> 100	> 100	> 100	> 100	–
O=c1c2c([N+](=O)[O-])cccc2nc2[nH]c3ccccc3n12	51.6	> 75	> 75	24.6	> 75	–	> 75	> 75	> 75	> 75	> 75
CNC(=O)Oc1ccc(-c2cn3cc(OC(=O)NC)ccc3n2)cc1	> 100	> 100	–	> 100	> 100	> 100	> 100	> 100	> 100	52.9	> 100
O=c1nc2c(c(-c3ccccc3Cl)[nH]1)COC/C2=C\c1ccccc1Cl	> 100	> 100	> 100	> 100	> 100	> 100	> 100	> 100	–	> 100	> 100
C[C@H](N)C(=O)Nc1ccc(-c2nc3ccccc3s2)cc1	60.8	28.5	–	57.2	31.1	41.6	32.2	> 100	29.6	24.8	56
CCN1C(=O)C(=C/C=C/c2ccc([N+](=O)[O-])cc2)C(=O)N(CC)C1=S	37.8	31.9	> 100	> 100	60.7	–	32.4	32.2	> 100	> 100	57.3
Cc1cn(C(Cc2ccccc2)OCCO)c(=O)[nH]c1=O (stereo not given)	–	> 100	–	–	> 100	> 100	> 100	> 100	> 100	> 100	> 100
CC(=O)Nc1cc2c(s1)CCC1CC(=O)NN=C21 (stereo not given)	> 100	> 100	> 100	–	> 100	> 100	> 100	–	> 100	> 100	> 100
COc1cc(C2SCC(=O)N2c2ccc(-c3ccc(-n4c(-c5ccccc5)nc5ccccc5c4=O)cc3)cc2)cc(OC)c1OC (stereo not given)	> 100	35.1	> 100	> 100	62.9	–	> 100	–	> 100	> 100	> 100
NC(=O)NNC(=O)c1nc[nH]c1[N+](=O)[O-]	> 100	> 100	–	> 100	–	> 100	> 100	> 100	> 100	> 100	> 100
C=CCCC(=O)CC(O)(C(F)(F)F)C(F)(F)F	> 100	> 100	> 100	> 100	> 100	> 100	> 100	> 100	> 100	> 100	–

Source: PubChem BioAssay (NCI)
